Our source for the IC50 values is patent US20260070945A1, “MACROCYCLIC IMMUNOMODULATORS” (Bristol-Myers Squibb Company, priority 2022, published 2026).

Where a SMILES comes first, the peptide text is derived from it. Bridges are numbered along the chain shown (N, C = ends). [ ]: non-standard residue; d: D form. The star is where a group is joined. ξ: configuration not given here. Trp(1-CH2COOH) = N[C@@H](Cc1cn(CC(=O)O)c2ccccc12)C(=O)O; Phe(3-CF3) = N[C@@H](Cc1cccc(C(F)(F)F)c1)C(=O)O; Phe(4-COOH) = N[C@@H](Cc1ccc(C(=O)O)cc1)C(=O)O; Bip = N[C@@H](Cc1ccc(-c2ccccc2)cc1)C(=O)O; Phe(3-Me) = Cc1cccc(C[C@H](N)C(=O)O)c1; NH(CH2)12COOH = O=C(O)CCCCCCCCCCCCN*; Val(3-OH) = CC(C)(O)[C@H](N)C(=O)O; Cha = N[C@@H](CC1CCCCC1)C(=O)O; Cit = NC(=O)NCCC[C@H](N)C(=O)O; ξY = NC(Cc1ccc(O)cc1)C(=O)O; Carboxymethyl = O=C(O)C*; NMeA = CN[C@@H](C)C(=O)O; Aun = NCCCCCCCCCCC(=O)O; Dab = NCC[C@H](N)C(=O)O; AEEA = NCCOCCOCC(=O)O

For the assay, the target named is T1, PD-1/PD-L1 interaction (PE-labeled human PD-L1-Ig binding to Jurkat cell line over-expressing human PD-1) (Homo sapiens, UniProt Q15116).
T1 construct: expressed in transfected cells; host or cells: Jurkat
T1 sequence (Q15116 25-288): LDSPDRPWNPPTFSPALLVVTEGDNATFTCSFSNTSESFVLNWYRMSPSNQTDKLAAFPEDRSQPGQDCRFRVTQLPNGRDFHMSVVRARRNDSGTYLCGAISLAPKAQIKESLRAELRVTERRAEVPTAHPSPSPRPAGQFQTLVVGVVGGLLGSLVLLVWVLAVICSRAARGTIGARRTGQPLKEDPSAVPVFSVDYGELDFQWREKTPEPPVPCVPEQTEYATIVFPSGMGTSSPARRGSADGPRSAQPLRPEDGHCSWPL
The assay is described as follows: Jurkat-PD-1 Cell Binding High-Content Screening Assay (CBA). Particulars: Jurkat-hPD-1 cells, PE-labeled PD-L1-Ig 20 nM final; read-out: Jurkat HPD1 PDL1 IC50. Summed up:
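Binding of 20 nM (final) PE-tagged PD-L1-Ig to compound-pretreated Jurkat-hPD-1 cells was measured by high-content imaging after 1 h. Pretreatment ran 2 h at 37 °C in DMEM with 10% fetal calf serum.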
A word on the IC50: it is the midpoint of a concentration-inhibition curve. With `CC(C)C[C@@H]1NC(=O)[C@H](Cc2c[nH]c3ccccc23)NC(=O)[C@H](CC(=O)O)NC(=O)[C@H](Cc2ccc(C(=O)O)cc2)NC(=O)[C@H](Cc2ccc(OCC(=O)O)cc2)NC(=O)CSC[C@@H](C(=O)N[C@@H](CCN)C(=O)NCCOCCOCC(=O)NCCCCCCCCCCC(=O)O)NC(=O)[C@H](CCC(N)=O)NC(=O)[C@H](C(C)(C)O)NC(=O)[C@H](CC2CCCCC2)NC(=O)[C@H](CCN)NC(=O)[C@@H](CC(C)C)NC(=O)[C@H](C)N(C)C(=O)[C@H](C(C)C)NC(=O)[C@H](Cc2ccc(-c3ccccc3)cc2)NC1=O` [Example 1125] ({CH2CO}-Y(Carboxymethyl)[Phe(4-COOH)]DWL[Bip]V[NMeA][dL][Dab][Cha][Val(3-OH)]QC[Dab][AEEA][Aun]-OH; thioether N-14), the half-maximal inhibitory concentration (IC50) turned out to be 9.9 nM.
Next, `CC(C)C[C@@H]1NC(=O)[C@H](Cc2c[nH]c3ccccc23)NC(=O)[C@H](CC(=O)O)NC(=O)[C@H](Cc2ccc(C(=O)O)cc2)NC(=O)[C@H](Cc2ccc(OCC(=O)O)cc2)NC(=O)CSC[C@@H](C(=O)N[C@@H](CCN)C(=O)NCCOCCOCC(=O)NCCCCCCCCCCC(=O)O)NC(=O)[C@H](CCC(N)=O)NC(=O)[C@H](C(C)C)NC(=O)[C@H](CC2CCCCC2)NC(=O)[C@H](CCN)NC(=O)[C@@H](CC(C)C)NC(=O)[C@H](C)N(C)C(=O)[C@H](C(C)C)NC(=O)[C@H](Cc2ccc(-c3ccccc3)cc2)NC1=O` [Example 1126] ({CH2CO}-Y(Carboxymethyl)[Phe(4-COOH)]DWL[Bip]V[NMeA][dL][Dab][Cha]VQC[Dab][AEEA][Aun]-OH; thioether N-14): 3.4 nM; `CC(C)C[C@@H]1NC(=O)[C@H](Cc2c[nH]c3ccccc23)NC(=O)[C@H](CC(=O)O)NC(=O)[C@H](Cc2ccc(C(=O)O)cc2)NC(=O)[C@H](Cc2ccc(OCC(=O)O)cc2)NC(=O)CSC[C@@H](C(=O)N[C@@H](CCN)C(=O)NCCOCCOCC(=O)NCCCCCCCCCCC(=O)O)NC(=O)[C@H](CCN)NC(=O)[C@H](C(C)(C)O)NC(=O)[C@H](CC2CCCCC2)NC(=O)[C@H](CCN)NC(=O)[C@@H](CC(C)C)NC(=O)[C@H](C)N(C)C(=O)[C@H](C(C)C)NC(=O)[C@H](Cc2ccc(-c3ccccc3)cc2)NC1=O` [Example 1127] ({CH2CO}-Y(Carboxymethyl)[Phe(4-COOH)]DWL[Bip]V[NMeA][dL][Dab][Cha][Val(3-OH)][Dab]C[Dab][AEEA][Aun]-OH; thioether N-14): 3.8 nM; `CC(C)C[C@@H]1NC(=O)[C@H](Cc2c[nH]c3ccccc23)NC(=O)[C@H](CC(=O)O)NC(=O)[C@H](Cc2ccc(C(=O)O)cc2)NC(=O)[C@H](Cc2ccc(OCC(=O)O)cc2)NC(=O)CSC[C@@H](C(=O)N[C@@H](CCN)C(=O)NCCOCCOCC(=O)NCCCCCCCCCCC(=O)O)NC(=O)[C@H](Cc2cnc[nH]2)NC(=O)[C@H](C(C)(C)O)NC(=O)[C@H](CC2CCCCC2)NC(=O)[C@H](CCN)NC(=O)[C@@H](CC(C)C)NC(=O)[C@H](C)N(C)C(=O)[C@H](C(C)C)NC(=O)[C@H](Cc2ccc(-c3ccccc3)cc2)NC1=O` [Example 1129] ({CH2CO}-Y(Carboxymethyl)[Phe(4-COOH)]DWL[Bip]V[NMeA][dL][Dab][Cha][Val(3-OH)]HC[Dab][AEEA][Aun]-OH; thioether N-14): 6.7 nM.
Next, `CC(C)C[C@@H]1NC(=O)[C@H](Cc2c[nH]c3ccccc23)NC(=O)[C@H](CC(=O)O)NC(=O)[C@H](Cc2ccc(C(=O)O)cc2)NC(=O)[C@H](Cc2ccc(OCC(=O)O)cc2)NC(=O)CSC[C@@H](C(=O)N[C@@H](CCN)C(=O)NCCOCCOCC(=O)NCCCCCCCCCCC(=O)O)NC(=O)[C@H](Cc2cnc[nH]2)NC(=O)[C@H](C(C)C)NC(=O)[C@H](CC2CCCCC2)NC(=O)[C@H](CCN)NC(=O)[C@@H](CC(C)C)NC(=O)[C@H](C)N(C)C(=O)[C@H](C(C)C)NC(=O)[C@H](Cc2ccc(-c3ccccc3)cc2)NC1=O` [Example 1130] ({CH2CO}-Y(Carboxymethyl)[Phe(4-COOH)]DWL[Bip]V[NMeA][dL][Dab][Cha]VHC[Dab][AEEA][Aun]-OH; thioether N-14): 12.3 nM; `Cc1cccc(C[C@@H]2NC(=O)[C@H](CC(=O)O)NC(=O)[C@H](Cc3cn(CC(=O)O)c4ccccc34)NC(=O)[C@H](CCN)NC(=O)CSC[C@@H](C(=O)N[C@@H](CCN)C(=O)NCCCCCCCCCCC(=O)O)NC(=O)[C@H]([C@@H](C)O)NC(=O)[C@H](C(C)C)NC(=O)[C@H](CC3CCCCC3)NC(=O)[C@H](CCN)NC(=O)[C@@H](CC(C)C)NC(=O)[C@H](C)N(C)C(=O)[C@H](Cc3ccc(OCC(=O)O)cc3)NC(=O)[C@H](Cc3ccc(-c4ccccc4)cc3)NC(=O)C(Cc3ccc(OCC(=O)O)cc3)NC2=O)c1` (stereo partly drawn) [Example 1133] ({CH2CO}-[Dab][Trp(1-CH2COOH)]D[Phe(3-Me)][ξY](Carboxymethyl)[Bip]Y(Carboxymethyl)[NMeA][dL][Dab][Cha]VTC[Dab][Aun]-OH; thioether N-14): 29.3 nM; `COC[C@@H]1NC(=O)CSC[C@@H](C(=O)N[C@@H](CCN)C(=O)NCCCCCCCCCCCCC(=O)O)NC(=O)[C@H](CC(=O)O)NC(=O)[C@H](C(C)(C)O)NC(=O)[C@H](CC2CCCCC2)NC(=O)[C@H](CCN)NC(=O)[C@@H](CC(C)C)NC(=O)[C@H](C)N(C)C(=O)[C@H](CCC(N)=O)NC(=O)[C@H](Cc2ccc(-c3ccccc3)cc2)NC(=O)[C@H](Cc2ccc(C(=O)O)cc2)NC(=O)[C@H](Cc2cccc(C(F)(F)F)c2)NC(=O)[C@H](CC(=O)O)NC(=O)[C@H](Cc2ccc(OCC(=O)O)cc2)NC1=O` [Example 1134] ({CH2CO}-S(Me)Y(Carboxymethyl)D[Phe(3-CF3)][Phe(4-COOH)][Bip]Q[NMeA][dL][Dab][Cha][Val(3-OH)]DC[Dab]-{NH(CH2)12COOH}; thioether N-14): 15.3 nM.
To `COC[C@@H]1NC(=O)CSC[C@@H](C(=O)N[C@@H](CCN)C(=O)NCCCCCCCCCCCCC(=O)O)NC(=O)[C@H](CCC(=O)O)NC(=O)[C@H](C(C)C)NC(=O)[C@H](CC2CCCCC2)NC(=O)[C@H](CCN)NC(=O)[C@@H](CC(C)C)NC(=O)[C@H](C)N(C)C(=O)[C@H](CCC(N)=O)NC(=O)[C@H](Cc2ccc(-c3ccccc3)cc2)NC(=O)[C@H](Cc2ccc(C(=O)O)cc2)NC(=O)[C@H](Cc2cccc(C(F)(F)F)c2)NC(=O)[C@H](CC(=O)O)NC(=O)[C@H](Cc2ccc(OCC(=O)O)cc2)NC1=O` [Example 1135] ({CH2CO}-S(Me)Y(Carboxymethyl)D[Phe(3-CF3)][Phe(4-COOH)][Bip]Q[NMeA][dL][Dab][Cha]VEC[Dab]-{NH(CH2)12COOH}; thioether N-14) belongs 12.5 nM; to `COC[C@@H]1NC(=O)CSC[C@@H](C(=O)N[C@@H](CCN)C(=O)NCCCCCCCCCCCCC(=O)O)NC(=O)[C@H](CO)NC(=O)[C@H](C(C)(C)O)NC(=O)[C@H](CC2CCCCC2)NC(=O)[C@H](CCN)NC(=O)[C@@H](CC(C)C)NC(=O)[C@H](C)N(C)C(=O)[C@H](CCC(N)=O)NC(=O)[C@H](Cc2ccc(-c3ccccc3)cc2)NC(=O)[C@H](Cc2ccc(C(=O)O)cc2)NC(=O)[C@H](Cc2cccc(C(F)(F)F)c2)NC(=O)[C@H](CC(=O)O)NC(=O)[C@H](Cc2ccc(OCC(=O)O)cc2)NC1=O` [Example 1136] ({CH2CO}-S(Me)Y(Carboxymethyl)D[Phe(3-CF3)][Phe(4-COOH)][Bip]Q[NMeA][dL][Dab][Cha][Val(3-OH)]SC[Dab]-{NH(CH2)12COOH}; thioether N-14), 18.1 nM; to `COC[C@@H]1NC(=O)CSC[C@@H](C(=O)N[C@@H](CCN)C(=O)NCCCCCCCCCCCCC(=O)O)NC(=O)[C@H](Cc2c[nH]cn2)NC(=O)[C@H](C(C)(C)O)NC(=O)[C@H](CC2CCCCC2)NC(=O)[C@H](CCN)NC(=O)[C@@H](CC(C)C)NC(=O)[C@H](C)N(C)C(=O)[C@H](CCC(N)=O)NC(=O)[C@H](Cc2ccc(-c3ccccc3)cc2)NC(=O)[C@H](Cc2ccc(C(=O)O)cc2)NC(=O)[C@H](Cc2cccc(C(F)(F)F)c2)NC(=O)[C@H](CC(=O)O)NC(=O)[C@H](Cc2ccc(OCC(=O)O)cc2)NC1=O` [Example 1137] ({CH2CO}-S(Me)Y(Carboxymethyl)D[Phe(3-CF3)][Phe(4-COOH)][Bip]Q[NMeA][dL][Dab][Cha][Val(3-OH)]HC[Dab]-{NH(CH2)12COOH}; thioether N-14), 13.5 nM.
As to `COC[C@@H]1NC(=O)CSC[C@@H](C(=O)N[C@@H](CCN)C(=O)NCCCCCCCCCCCCC(=O)O)NC(=O)[C@H](CC(=O)O)NC(=O)[C@H](C(C)(C)O)NC(=O)[C@H](CC2CCCCC2)NC(=O)[C@H](CCN)NC(=O)[C@@H](CC(C)C)NC(=O)[C@H](C)N(C)C(=O)[C@H](CCCNC(N)=O)NC(=O)[C@H](Cc2ccc(-c3ccccc3)cc2)NC(=O)[C@H](Cc2ccc(C(=O)O)cc2)NC(=O)[C@H](Cc2cccc(C(F)(F)F)c2)NC(=O)[C@H](CC(=O)O)NC(=O)[C@H](Cc2ccc(OCC(=O)O)cc2)NC1=O` [Example 1138] ({CH2CO}-S(Me)Y(Carboxymethyl)D[Phe(3-CF3)][Phe(4-COOH)][Bip][Cit][NMeA][dL][Dab][Cha][Val(3-OH)]DC[Dab]-{NH(CH2)12COOH}; thioether N-14), the concentration for half-maximal inhibition (IC50) stood at 11.2 nM.
Next, `COC[C@@H]1NC(=O)CSC[C@@H](C(=O)N[C@@H](CCN)C(=O)NCCCCCCCCCCCCC(=O)O)NC(=O)[C@H](CCC(=O)O)NC(=O)[C@H](C(C)C)NC(=O)[C@H](CC2CCCCC2)NC(=O)[C@H](CCN)NC(=O)[C@@H](CC(C)C)NC(=O)[C@H](C)N(C)C(=O)[C@H](CCCNC(N)=O)NC(=O)[C@H](Cc2ccc(-c3ccccc3)cc2)NC(=O)[C@H](Cc2ccc(C(=O)O)cc2)NC(=O)[C@H](Cc2cccc(C(F)(F)F)c2)NC(=O)[C@H](CC(=O)O)NC(=O)[C@H](Cc2ccc(OCC(=O)O)cc2)NC1=O` [Example 1139] ({CH2CO}-S(Me)Y(Carboxymethyl)D[Phe(3-CF3)][Phe(4-COOH)][Bip][Cit][NMeA][dL][Dab][Cha]VEC[Dab]-{NH(CH2)12COOH}; thioether N-14): 12.7 nM.
